The first data set is described as follows: Solubility of pesticides in solvents (stepwise 2% increments of pesticide powder). The conditions noted are these: solvent: diethylene glycol monoethyl ether, highest concentration still dissolved, no more than 2% lower than actual solubility.
Experimental: The solubility of various pesticides in these solvents are evaluated.
Each pesticide powder is added by solvent in 2% stepwise increments to the final pesticide concentration. Each pesticide reaches a concentration where the pesticide powder is not dissolved by the solvent.
Regarding `CC(C)(C)C(O)(CCc1ccc(Cl)cc1)Cn1cncn1` (stereo not drawn) [Tebuconazole], the “Solubility in Comparative Solvent B” value is 26.5 weight %.

Regarding `CC(C)(C)C(=O)C(Oc1ccc(Cl)cc1)n1cncn1` (stereo not drawn) [Triazolone], the “Solubility in Comparative Solvent B” value was determined as 35.7 weight %.

`CCCCC(C#N)(Cn1cncn1)c1ccc(Cl)cc1` (stereo not drawn) [Myclobutanil]: the “Solubility in Comparative Solvent B” value is on record as 46.0 weight %.

Consider `COC(=O)N(OC)c1ccccc1COc1ccn(-c2ccc(Cl)cc2)n1` [Pyraclostrobin], for which the “Solubility in Comparative Solvent B” value came out at 33.0 weight %.

The data set is the same for the next values; noted with them: solvent: dimethyl sulfoxide (DMSO), highest concentration still dissolved, no more than 2% lower than actual solubility.
As to `CC(C)(C)C(O)(CCc1ccc(Cl)cc1)Cn1cncn1` (stereo not drawn) [Tebuconazole], the “Solubility in Comparative Solvent A” value came out at 32.3 weight %.

As to `CC(C)(C)C(=O)C(Oc1ccc(Cl)cc1)n1cncn1` (stereo not drawn) [Triazolone], the “Solubility in Comparative Solvent A” value was found to be 43.3 weight %.

Take `CCCCC(C#N)(Cn1cncn1)c1ccc(Cl)cc1` (stereo not drawn) [Myclobutanil]: the “Solubility in Comparative Solvent A” value was 56.7 weight %.

With `COC(=O)N(OC)c1ccccc1COc1ccn(-c2ccc(Cl)cc2)n1` [Pyraclostrobin], the “Solubility in Comparative Solvent A” value is on record as 40.0 weight %.

Staying with this data set, now noted: solvent: ethyl 3-ethoxypropionate, highest concentration still dissolved, no more than 2% lower than actual solubility.
Turning to `CC(C)(C)C(O)(CCc1ccc(Cl)cc1)Cn1cncn1` (stereo not drawn) [Tebuconazole], the “Solubility in Comparative Solvent C” value came out at 16.0 weight %.

As to `CC(C)(C)C(=O)C(Oc1ccc(Cl)cc1)n1cncn1` (stereo not drawn) [Triazolone], the “Solubility in Comparative Solvent C” value was determined as 32.0 weight %.

As for `CCCCC(C#N)(Cn1cncn1)c1ccc(Cl)cc1` (stereo not drawn) [Myclobutanil], the “Solubility in Comparative Solvent C” value was 39.0 weight %.

`COC(=O)N(OC)c1ccccc1COc1ccn(-c2ccc(Cl)cc2)n1` [Pyraclostrobin]: the “Solubility in Comparative Solvent C” value came out at 47.0 weight %.

Source of the values: US11547112B2, “Solvents for agricultural applications and pesticide formulations” (Dow Global Technologies LLC, priority 2017, dated 2023).
